The target in data set [1] is T1, CA IX (Homo sapiens, UniProt Q16790). The following applies: read-out: Ki, cited from earlier work.
For data set [2], the target named is T1, CA IX. The experiment in a line: biochemical. To be noted: read-out: pKi (exp.) (converted).
The nature of data set [3]: RP-LC chromatographic lipophilicity (logkw). It is filed as physicochemical. The following applies: chromatographic lipophilicity from gradient RP-LC, Luna RP-C18, water/acetonitrile with 0.1% formic acid, 30 °C.
In data set [4] the target is T1, CA IX. The experiment in a line: Stopped-flow CA-catalysed CO2 hydration inhibition assay. It is filed as biochemical. To be noted: for Ki: sulphonamides with IDs C...
The mark [5] stands for this setting: observed Ki of library compounds (IDs A…, B…), ref ChEMBL and BindingDB.
The mark [6] stands for this setting: experimental value from the library Ki (IDs A…, B…), values equal log10 of Ki in nM.
Where [7] appears, read: experimental value used for the QSPR model, library compounds (IDs A…, B…), equals log10 of Ki in nM.
The mark [8] stands for this setting: library compounds with IDs A… and B…, observed Ki, ref ChEMBL, BindingDB.
The mark [9] stands for this setting: library compounds with IDs A… and B…, from observed Ki (nM).

The structures appear in SMILES notation. Where two headings read alike, the source gives them in different places.

With `CCO[C@H]1Oc2ccccc2C(=O)[C@H]1/C=N\c1ccc(S(=O)(=O)Nc2cc(C)on2)cc1` [B0311], the Ki at CA IX [1] (setting [5]) and on CA IX [2] (setting [6]) was 24 nM each time.

Turning to `Nc1nc(=O)[nH]c2c1c(-c1ccc(Br)cc1)cn2-c1ccc(S(N)(=O)=O)cc1` [B0312], the Ki on CA IX [1] and at CA IX [2] was 24 nM in each case.

Consider `CCCN(CCC)S(=O)(=O)c1ccc(C(=O)N[C@H](Cc2ccccc2)C(N)=O)cc1` [B0320], for which the Ki at CA IX [1] and on CA IX [2] was 25 nM throughout.

Consider `NS(=O)(=O)c1ccc(NC(=S)Nc2ccc(C3c4ccc(O)cc4Oc4cc(O)ccc43)c(C(=O)O)c2)c(F)c1` [B0365], for which the Ki on CA IX [1] (setting [5]) and on CA IX [2] (setting [7]) was 30 nM throughout.

Regarding `NS(=O)(=O)c1ccc(NC(=S)Nc2ccc(C3c4ccc(O)cc4Oc4cc(O)ccc43)c(C(=O)O)c2)c(Cl)c1` [B0381], the Ki on CA IX [1] (setting [8]) and at CA IX [2] (setting [9]) was 32 nM in each case.

On to `CC1=CC(C)C=C(C)N1Cc1ccc(S(N)(=O)=O)cc1` [B0412], for which the Ki on CA IX [1] (setting [5]) and on CA IX [2] (setting [6]) was 38 nM throughout.

With `NS(=O)(=O)c1ccc(C(=O)OCc2cn([C@@H]3O[C@H](CO)[C@@H](O)[C@@H](O)[C@@H]3O)nn2)cc1` [B0491], the Ki at CA IX [1] and at CA IX [2] was 65 nM in each case.

Take `CC(=O)O[C@@H]1O[C@@H](COS(N)(=O)=O)[C@H](OC(C)=O)[C@@H](OC(C)=O)[C@H]1OC(C)=O` [B0512]: the values for the Ki on CA IX [1] (setting [5]) and on CA IX [2] (setting [7]) were 73 nM and 72.9 nM, respectively.

With `CC(=O)OC[C@H]1O[C@H](SCc2nnn(-c3ccc(S(N)(=O)=O)cc3)c2C#CCO)[C@@H](OC(C)=O)[C@H](OC(C)=O)[C@@H]1OC(C)=O` [B0570], the Ki on CA IX [1] (setting [5]) and on CA IX [2] (setting [6]) was 91 nM each time.

Take `COc1cccc(/C=C\C(=O)C[C@@H]2O[C@@H](COC(C)=O)[C@@H](OC(C)=O)[C@@H](OC(C)=O)[C@H]2OC(C)=O)c1` [B0574]: the Ki is 93 nM on CA IX [1] (setting [8]) and 92.9 nM on CA IX [2] (setting [9]).

With `NS(=O)(=O)c1ccc(-n2cc(CO[C@H]3O[C@@H](CO)[C@H](O)[C@H](O)[C@@H]3O)nn2)cc1` [B0594], the Ki on CA IX [1] and at CA IX [2] was 101 nM throughout.

`COC(=O)[C@H]1O[C@H](SNCc2ccc(S(N)(=O)=O)cc2)[C@@H](OC(C)=O)[C@H](OC(C)=O)[C@H]1OC(C)=O` [B0598]: the Ki at CA IX [1] (setting [5]) and on CA IX [2] (setting [7]) was 102 nM in each case.

Take `CC(=O)OC[C@@H]1O[C@@H](OCc2cn(-c3ccc(S(N)(=O)=O)cc3)nn2)[C@H](OC(C)=O)[C@@H](OC(C)=O)[C@H]1OC(C)=O` [B0606]: the Ki on CA IX [1] and on CA IX [2] was 107 nM throughout.

Take `NS(=O)(=O)c1ccc(-c2cn([C@H]3O[C@H](CO)[C@@H](O[C@@H]4O[C@H](CO)[C@@H](O)[C@H](O)[C@@H]4O)[C@H](O)[C@@H]3O)nn2)cc1` [B0632]: the Ki on CA IX [1] and at CA IX [2] was 130 nM in each case.

Turning to `COc1cc(/C=C\C(=O)OCCCCO[N+](=O)[O-])ccc1OC(=O)c1cccc(S(=O)(=O)Nc2nnc(S(N)(=O)=O)s2)c1` [B0659], the Ki at CA IX [1] and on CA IX [2] was 177 nM each time.

On to `Cc1cccc(/C=N/CCc2ccc(S(N)(=O)=O)cc2)c1O` [B0709], for which the Ki on CA IX [1] and at CA IX [2] was 295 nM throughout.

As for `NS(=O)(=O)c1ccc(N[C@H]2SC[C@@H](c3ccc(Cl)cc3Cl)N2C2CCCCC2)cc1` [B0713], the Ki on CA IX [1] (setting [5]) and at CA IX [2] (setting [7]) was 342 nM throughout.

For the compound `NS(=O)(=O)c1ccc(C(=O)NCc2cn([C@H]3O[C@@H](CO)[C@H](O)[C@@H](O)[C@@H]3O)nn2)cc1` [B0735], the Ki on CA IX [1] and on CA IX [2] was 442 nM each time.

As for `C[C@H]1O[C@@H](NS(N)(=O)=O)[C@@H](O)[C@H](O)[C@H]1O` [B0772], the Ki at CA IX [1] was 900 nM; on CA IX [2] it was 899 nM.

As to `CC(=O)OC[C@H]1O[C@H](CC(=O)/C=C\c2ccc(O)cc2)[C@@H](OC(C)=O)[C@H](OC(C)=O)[C@@H]1OC(C)=O` [B0789], the Ki at CA IX [1] (setting [8]) and at CA IX [2] (setting [9]) was 2900 nM each time.

As to `COC(=O)[C@@H]1O[C@H](S(N)(=O)=O)[C@@H](OC(C)=O)[C@H](OC(C)=O)[C@@H]1OC(C)=O` [B0808], the Ki at CA IX [1] (setting [5]) and at CA IX [2] (setting [7]) was 4150 nM in each case.

Turning to `Oc1cc(O)c2c(c1)O[C@@H](c1ccc(O)c(O)c1)[C@H](O)C2` [B0819], the Ki at CA IX [1] (setting [8]) is 5030 nM; on CA IX [2] (setting [9]), 5040 nM.

With `COC(=O)C(=O)[C@H]1C(=O)Nc2ccccc21` [B0865], the Ki at CA IX [1] (setting [5]) and at CA IX [2] (setting [7]) was 8020 nM in each case.

As for `O=C(N/N=C\c1cccc(Br)c1)Nc1nnc(S)s1` [B0891], the Ki on CA IX [1] (setting [8]) and at CA IX [2] (setting [9]) was 10100 nM in each case.

Regarding `Cc1cc(S(=O)(=O)NC(=N)Nc2ccc(S(N)(=O)=O)cc2)c(SCc2ccccc2)cc1Cl` [C94], in data set [3], the logkw was found to be 4.050.

On to `Cc1cc(S(=O)(=O)NC(=N)Nc2cccc(S(N)(=O)=O)c2)c(SCc2ccccc2)cc1Cl` [C95], for which the logkw in data set [3] was 3.930.

For `Cc1cc(S(=O)(=O)NC(=N)Nc2ccccc2S(N)(=O)=O)c(SCc2ccccc2)cc1Cl` [C96], in data set [3], the logkw was determined as 4.090.

With `Cc1cc(S(=O)(=O)NC(=N)NNc2ccc(S(N)(=O)=O)cc2)c(SCc2ccccc2)cc1Cl` [C97], the logkw in data set [3] came out at 4.090.

In data set [3], `Cc1cc(S(=O)(=O)NC(=N)NCc2ccc(S(N)(=O)=O)cc2)c(SCc2ccccc2)cc1Cl` [C98] showed a logkw of 3.920. At CA IX [4] (logarithm of Ki (Ki in nM), mean of three determinations), the “logKi(CA IX)” value was determined as 1.130. Further, the Ki on CA IX [4] (read-out: Ki) and at CA IX [4] (read-out: pKi (exp.) (converted)) was 23.1 nM each time.

With `Cc1cc(S(=O)(=O)NC(=N)Nc2nnc(S(N)(=O)=O)s2)c(SCc2ccccc2)cc1Cl` [C99], the logkw in data set [3] stood at 4.070.

`Cc1cc(S(=O)(=O)NC(=N)Nc2ccc(S(N)(=O)=O)cc2)c(SCc2cccc(C(F)(F)F)c2)cc1Cl` [C100]: the logkw in data set [3] came out at 4.530.

Regarding `Cc1cc(S(=O)(=O)NC(=N)Nc2cccc(S(N)(=O)=O)c2)c(SCc2cccc(C(F)(F)F)c2)cc1Cl` [C101], in data set [3], the logkw stood at 4.470.

`Cc1cc(S(=O)(=O)NC(=N)Nc2ccccc2S(N)(=O)=O)c(SCc2cccc(C(F)(F)F)c2)cc1Cl` [C102] returned a logkw in data set [3] of 4.430.

In data set [3], `Cc1cc(S(=O)(=O)NC(=N)Nc2nnc(S(N)(=O)=O)s2)c(SCc2cccc(C(F)(F)F)c2)cc1Cl` [C104] registered a logkw of 4.600.

`Cc1cc(S(=O)(=O)NC(=N)Nc2ccc(S(N)(=O)=O)cc2)c(SCc2ccc(C(F)(F)F)cc2)cc1Cl` [C105] showed a logkw in data set [3] of 4.550.

`Cc1cc(S(=O)(=O)NC(=N)Nc2cccc(S(N)(=O)=O)c2)c(SCc2ccc(C(F)(F)F)cc2)cc1Cl` [C106] returned a logkw in data set [3] of 4.540.

Compound `Cc1cc(S(=O)(=O)NC(=N)Nc2ccccc2S(N)(=O)=O)c(SCc2ccc(C(F)(F)F)cc2)cc1Cl` [C107] displayed a logkw in data set [3] of 4.430.

As to `Cc1cc(S(=O)(=O)NC(=N)NNc2ccc(S(N)(=O)=O)cc2)c(SCc2ccc(C(F)(F)F)cc2)cc1Cl` [C108], the logkw in data set [3] came out at 4.460.

Compound `Cc1cc(S(=O)(=O)NC(=N)NCc2ccc(S(N)(=O)=O)cc2)c(SCc2ccc(C(F)(F)F)cc2)cc1Cl` [C109] came in with a logkw in data set [3] of 4.590.

`Cc1cc(S(=O)(=O)NC(=N)Nc2ccc(S(N)(=O)=O)cc2)c(SCc2cccc3ccccc23)cc1Cl` [C111] registered a logkw in data set [3] of 3.900.

`Cc1cc(S(=O)(=O)NC(=N)Nc2cccc(S(N)(=O)=O)c2)c(SCc2cccc3ccccc23)cc1Cl` [C112]: the logkw in data set [3] stood at 3.940.

Turning to `Cc1cc(S(=O)(=O)NC(=N)NNc2ccc(S(N)(=O)=O)cc2)c(SCc2cccc3ccccc23)cc1Cl` [C113], the logkw in data set [3] came to 3.830.

`Cc1cc(S(=O)(=O)NC(=N)NCc2ccc(S(N)(=O)=O)cc2)c(SCc2cccc3ccccc23)cc1Cl` [C114] displayed a logkw in data set [3] of 3.990.

For the compound `Cc1cc(S(=O)(=O)NC(=N)Nc2ccc(S(N)(=O)=O)cc2)c(SCc2cc(=O)[nH]c3ccccc23)cc1Cl` [C115], the logkw in data set [3] stood at 3.830.

Compound `Cc1cc(S(=O)(=O)NC(=N)Nc2cccc(S(N)(=O)=O)c2)c(SCc2cc(=O)[nH]c3ccccc23)cc1Cl` [C116] came in with a logkw in data set [3] of 3.800.

`Cc1cc(S(=O)(=O)NC(=N)Nc2ccccc2S(N)(=O)=O)c(SCc2cc(=O)[nH]c3ccccc23)cc1Cl` [C117] came in with a logkw in data set [3] of 3.870.

The compound `Cc1cc(S(=O)(=O)NC(=N)NNc2ccc(S(N)(=O)=O)cc2)c(SCc2cc(=O)[nH]c3ccccc23)cc1Cl` [C118] gave a logkw in data set [3] of 3.770.

`Cc1cc(S(=O)(=O)NC(=N)Nc2ccc(S(N)(=O)=O)cc2)c(SCc2cc3c(cc2Cl)OCO3)cc1Cl` [C120]: in data set [3], the logkw is 4.070.

In data set [3], `Cc1cc(S(=O)(=O)NC(=N)Nc2cccc(S(N)(=O)=O)c2)c(SCc2cc3c(cc2Cl)OCO3)cc1Cl` [C121] gave a logkw of 3.990.

`Cc1cc(S(=O)(=O)NC(=N)NNc2ccc(S(N)(=O)=O)cc2)c(SCc2cc3c(cc2Cl)OCO3)cc1Cl` [C122]: the logkw in data set [3] turned out to be 3.690.

With `Cc1cc(S(=O)(=O)NC(=N)NCc2ccc(S(N)(=O)=O)cc2)c(SCc2cc3c(cc2Cl)OCO3)cc1Cl` [C123], the logkw in data set [3] is given as 3.850.

The values above are taken from PMC6151961 (Journal of Enzyme Inhibition and Medicinal Chemistry, 2018).
